How the values were obtained:
[1] = design: method as in PMID 33801447; details: previous study ref 25; cited from earlier work
[2] = Permeability under sink conditions (previous study / calculated for Figure 11); type: in vitro ADME; details: not told, given in Figure 11
Description: To assess the impact of permeability under non-sink conditions, we compared it with that under sink conditions.

[3] = Solubility from concentrations in the donor chambers; details: pH 6.5, 37 °C
Description: At 0, 30, 60, 120, 240 and 360 min, 100 μL of the acceptor chamber solution was withdrawn and diluted 2-fold. […] To measure the exact concentration in the donor chamber containing the nanosuspensions, the filtration method was applied according to a previous report [32]. Then, 100 μL of the filtered solution was diluted 2-fold. The sample concentration was determined by ultra-high-performance liquid chromatography (UHPLC).

[4] = design: method as in PMID 17694546; details: cited from earlier work

| SMILES | Papp under sink conditions [1] [×10⁻⁶ cm/s] | Papp [2] [×10⁻⁶ cm/s] | Effect of nanonization / particle size on solubility [3] | Papp using PAMPA relative to that of griseofulvin [4] |
| --- | --- | --- | --- | --- |
| COC1=CC(=O)C[C@@H](C)[C@]12Oc1c(Cl)c(OC)cc(OC)c1C2=O [griseofulvin] | 247 | 250 | not improved by nanonization |  |
| CC(=O)[C@H]1CC[C@H]2[C@@H]3CCC4=CC(=O)CC[C@]4(C)[C@H]3CC[C@]12C [progesterone] |  |  |  | 2–3 times |

— article PMC9024805, “Non-Effective Improvement of Absorption for Some Nanoparticle Formulations Explained by Permeability under Non-Sink Conditions” (Pharmaceutics, 2022)
